Test results: patent publication US11109593B2, “Isoxazolin-5-one derivative and herbicide containing same as active ingredient” (HOKKO CHEMICAL INDUSTRY CO., LTD., priority 2017, dated 2021)

Assays:
Type in all cases: in vivo
[1] = test system: Scirpus juncoides; assay: Test Example 2: herbicidal effect test by treatment during growing period in paddy rice cultivation (seven days after seeding); details: 120 g/10a active ingredient, assessed 14 days after treatment, dry weight vs untreated area
In short: (§1)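 Greenhouse flooded-pot test, seeds sown in puddled paddy soil; emulsion applied into water 7 d after seeding, 120 g a.i./10 a. Dry-weight-based herbicidal rate at 14 d, n=2.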

[2] = test system: Echinochloa crus-galli; assay: as above; details: 120 g/10a active ingredient, assessed 14 days after treatment, dry weight vs untreated area
In short: as §1

[3] = test system: broad leaf weeds (Lindernia pyxidaria and Monochoria vaginalis); assay: as above; details: 120 g/10a active ingredient, assessed 14 days after treatment, dry weight vs untreated area
In short: as §1

[4] = test system: Amaranthus viridis; assay: Test Example 3: herbicidal effect test by treatment of dry field farming soil (one day after seeding); details: 120 g/10a active ingredient, evaluated 14 days after treatment
In short: (§2)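 Compound emulsions are sprayed on the soil surface one day after sowing (120 g a.i. per 10 ares) before weeds emerge. Effect is expressed as percent dry-weight reduction versus untreated controls 14 days post-treatment.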

[5] = test system: Echinochloa crus-galli; assay: as above; details: 120 g/10a active ingredient, evaluated 14 days after treatment
In short: as §2

[6] = test system: Chenopodium album; assay: as above; details: 120 g/10a active ingredient, evaluated 14 days after treatment
In short: as §2

[7] = test system: southern crabgrass; assay: as above; details: 120 g/10a active ingredient, evaluated 14 days after treatment
In short: as §2

[8] = test system: Scirpus juncoides; assay: Test Example 1: herbicidal effect test by treatment of rice paddy soil (immediately after seeding); details: 120 g/10a active ingredient, dry weight vs untreated area, 14 days after treatment
In short: (§3)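 Values are herbicidal rates (%) derived from average plant dry weight in treated versus untreated pots 14 days after treatment, run in duplicate. Treatment was a water-diluted emulsion dropped into flooded paddy soil right after sowing, at 120 g active ingredient per 10 ares.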

[9] = test system: Echinochloa crus-galli; assay: as above; details: 120 g/10a active ingredient, dry weight vs untreated area, 14 days after treatment
In short: as §3

[10] = test system: broad leaf weeds (Lindernia pyxidaria and Monochoria vaginalis); assay: as above; details: 120 g/10a active ingredient, dry weight vs untreated area, 14 days after treatment
In short: as §3

[11] = test system: Amaranthus viridis; assay: Test Example 4: herbicidal effect test by treatment of leave and stem in dry field farming (seven days after seeding); details: 120 g/10a active ingredient; emulsion sprayed seven days after seeding; evaluated 14 days after treatment
In short: (§4)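 Duplicate pots were scored 14 days post-spray by dry weight, herbicidal rate = {1 − treated/untreated average dry weight} × 100. The water-diluted emulsion, equivalent to 120 g active ingredient per 10 ares in 100 L, was applied seven days after sowing 20 seeds each into the upper 1 cm of alluvial soil.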

[12] = test system: Echinochloa crus-galli; assay: as above; details: 120 g/10a active ingredient; emulsion sprayed seven days after seeding; evaluated 14 days after treatment
In short: as §4

[13] = test system: Chenopodium album; assay: as above; details: 120 g/10a active ingredient; emulsion sprayed seven days after seeding; evaluated 14 days after treatment
In short: as §4

[14] = test system: southern crabgrass; assay: as above; details: 120 g/10a active ingredient; emulsion sprayed seven days after seeding; evaluated 14 days after treatment
In short: as §4

| SMILES | Herbicidal rate (%) Scirpus juncoides [1] [%] | Herbicidal rate (%) Echinochloa crus-galli [2] [%] | Herbicidal rate (%) Lindernia pyxidaria [3] [%] | Herbicidal rate (%) Monochoria vaginalis [3] [%] | herbicidal rate, Amaranthus viridis [4] [%] | herbicidal rate, Echinochloa crus-galli [5] [%] | herbicidal rate, Chenopodium album [6] [%] | herbicidal rate, southern crabgrass [7] [%] | Herbicidal rate (%) Scirpus juncoides [8] [%] | Herbicidal rate (%) Echinochloa crus-galli [9] [%] | Herbicidal rate (%) Lindernia pyxidaria [10] [%] | Herbicidal rate (%) Monochoria vaginalis [10] [%] | herbicidal effect (herbicidal rate), Amaranthus viridis [11] [%] | herbicidal effect (herbicidal rate), Echinochloa crus-galli [12] [%] | herbicidal effect (herbicidal rate), Chenopodium album [13] [%] | herbicidal effect (herbicidal rate), southern crabgrass [14] [%] |
| --- | --- | --- | --- | --- | --- | --- | --- | --- | --- | --- | --- | --- | --- | --- | --- | --- |
| Cc1c(Cc2ccccc2N(S(=O)(=O)C(F)(F)F)S(=O)(=O)C(F)(F)F)c(=O)on1CCC(C)(C)C [Compound 1-975] | 80 | 100 | 70 | 80 | 90 | 80 | 90 | 90 | 90 | 100 | 90 | 80 | 50 | 50 | 40 | 0 |
| COCCn1oc(=O)c(Cc2ccccc2NS(=O)(=O)C(F)(F)F)c1C [Compound 1-148] | 90 | 90 | 60 | 80 | 80 | 100 | 80 | 100 | 100 | 90 | 100 | 90 | 40 | 90 | 40 | 80 |
| Cc1c(Cc2ccccc2N(S(=O)(=O)C(F)(F)F)S(=O)(=O)C(F)(F)F)c(=O)on1CCC(C)C [Compound 1-974] | 90 | 100 | 90 | 90 | 100 | 90 | 100 | 90 | 90 | 100 | 90 | 80 | 40 | 90 | 40 | 50 |
| CCC(C)n1oc(=O)c(Cc2ccccc2N(C(=O)c2ccc(Cl)cc2)S(=O)(=O)C(F)(F)F)c1C (stereo not shown) [Compound 1-484] | 90 | 90 | 90 | 90 | 90 | 90 | 90 | 90 | 90 | 90 | 90 | 90 | 40 | 90 | 40 | 90 |
| CCCCCC(c1ccccc1)n1oc(=O)c(Cc2ccccc2NS(=O)(=O)C(F)(F)F)c1C (stereo not shown) [Compound 1-215] | 90 | 90 | 90 | 80 | 40 | 50 | 40 | 50 | 90 | 100 | 100 | 80 | 50 | 40 | 40 | 50 |
| CCC(C)Cn1oc(=O)c(Cc2ccccc2N(S(C)(=O)=O)S(=O)(=O)C(F)(F)F)c1C (stereo not shown) [Compound 1-895] | 90 | 90 | 70 | 80 | 80 | 100 | 50 | 100 | 90 | 100 | 90 | 80 | 50 | 80 | 60 | 80 |
| CCC(C)Cn1oc(=O)c(Cc2ccccc2N(C(=O)OCC(C)C)S(=O)(=O)C(F)(F)F)c1C (stereo not shown) [Compound 1-674] | 90 | 100 | 70 | 90 | 40 | 80 | 40 | 50 | 90 | 100 | 90 | 90 | 60 | 70 | 50 | 80 |
| Cc1c(Cc2ccccc2NS(=O)(=O)C(F)(F)F)c(=O)on1C1CCc2ccccc21 (stereo not shown) [Compound 1-222] | 90 | 90 | 90 | 90 | 100 | 100 | 100 | 100 | 90 | 100 | 90 | 90 | 40 | 70 | 50 | 80 |
| Cc1c(Cc2ccccc2NS(=O)(=O)C(F)(F)F)c(=O)on1C(C)C1CC1 (stereo not shown) [Compound 1-144] | 90 | 90 | 50 | 80 | 0 | 70 | 0 | 80 | 90 | 100 | 90 | 100 | 50 | 90 | 0 | 90 |
| Cc1c(Cc2ccccc2N(C(=O)C2CC2)S(=O)(=O)C(F)(F)F)c(=O)on1C(C)c1ccccc1 (stereo not shown) [Compound 1-416] | 90 | 90 | 90 | 90 | 90 | 90 | 90 | 90 | 90 | 90 | 90 | 90 | 40 | 90 | 40 | 90 |
